ChEMBL document CHEMBL4130359, “Indazole-based ligands for estrogen-related receptor α as potential anti-diabetic agents” (Eur J Med Chem, 2017)

Columns and labels:
[1] = system: Rattus norvegicus; assay: Toxicity in Zucker rat sub-chronic fa/fa prediabetic model assessed as heart weight at 10 mg/kg, po qd for 31 days measured on day 32 (reference value: 1.19 +/- 0.04 g); type: organism-based; conditions: in vivo, 744 h
[2] = biological target: T1, Steroid hormone receptor ERR1 (Homo sapiens, UniProt P11474); assay: Antagonist activity at His6-tagged ERRalpha LBD (unknown origin) assessed as inhibition of GST-tagged SRC-2 co-activator peptide recruitment after 18 hrs by TR-FRET assay
T1 sequence (P11474 whole entry): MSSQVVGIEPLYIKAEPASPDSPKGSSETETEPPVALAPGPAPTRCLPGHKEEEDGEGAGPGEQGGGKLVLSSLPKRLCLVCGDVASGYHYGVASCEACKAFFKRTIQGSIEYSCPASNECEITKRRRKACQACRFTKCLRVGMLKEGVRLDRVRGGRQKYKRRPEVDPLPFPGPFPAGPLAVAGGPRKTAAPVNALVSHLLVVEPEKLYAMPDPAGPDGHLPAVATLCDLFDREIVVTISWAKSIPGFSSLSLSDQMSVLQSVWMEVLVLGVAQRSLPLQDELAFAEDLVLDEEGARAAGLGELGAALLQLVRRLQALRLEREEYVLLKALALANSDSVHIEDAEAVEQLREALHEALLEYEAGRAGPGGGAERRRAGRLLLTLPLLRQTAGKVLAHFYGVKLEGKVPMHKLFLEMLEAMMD

[3] = system: Rattus norvegicus; assay: Antidiabetic activity in Zucker rat sub-chronic fa/fa prediabetic model assessed as serum adiponectin level at 1 mg/kg, po qd for 4 days by ELISA (reference value: 9.1%); type: functional
[4] = system: Rattus norvegicus; assay: Antidiabetic activity in Zucker rat sub-chronic fa/fa prediabetic model assessed as blood insulin AUC (0 to 120 min) at 3 mg/kg, po qd for 31 days measured on day 29 post dose (reference value: 1503 +/- 160 ug.min/L); type: functional, organism-based; parameters: dose 3 mg/kg, time < 2 hr
[5] = system: Rattus norvegicus; assay: Effect on NDUFB5 gene expression in epididymal white adipose tissue of Zucker rat sub-chronic fa/fa prediabetic model at 10 mg/kg, po qd for 15 days by microarray analysis relative to control; type: functional
[6] = system: Rattus norvegicus; assay: Toxicity in Zucker rat sub-chronic fa/fa prediabetic model assessed as epididymal white adipose tissue weight at 1 mg/kg, po qd for 31 days measured on day 32 (reference value: 13.9 +/- 0.6 g); type: organism-based; conditions: in vivo, 744 h
[7] = system: Rattus norvegicus; assay: Antidiabetic activity in Zucker rat sub-chronic fa/fa prediabetic model assessed as fasting blood glucose level at 1 mg/kg, po qd for 31 days measured on day 29 post dose (reference value: 163 +/- 9.2 mg/dl); type: functional
[8] = system: Rattus norvegicus; assay: Effect on UGP2 gene expression in epididymal white adipose tissue of Zucker rat sub-chronic fa/fa prediabetic model at 10 mg/kg, po qd for 15 days by microarray analysis relative to control; type: functional
[9] = system: Rattus norvegicus; assay: Toxicity in […] model assessed as liver weight at 50 mg/kg, po qd for 31 days measured on day 32 (reference value: 2.77 +/- 0.16 g); type: organism-based; conditions: in vivo, 744 h
[10] = system: Rattus norvegicus; assay: Toxicity in Zucker rat sub-chronic fa/fa prediabetic model assessed as serum BUN level at 3 mg/kg, po qd for 31 days measured on day 32 (reference value: 28.3 +/- […]); type: organism-based; conditions: in vivo, 744 h
[11] = system: Rattus norvegicus; assay: Effect on MAOB gene expression in epididymal white adipose tissue of Zucker rat sub-chronic fa/fa prediabetic model at 10 mg/kg, po qd for 15 days by microarray analysis relative to control; type: functional
[12] = system: Rattus norvegicus; assay: Effect on NDUFS2 gene expression in epididymal white adipose tissue of Zucker rat sub-chronic fa/fa prediabetic model at 10 mg/kg, po qd for 15 days by microarray analysis relative to control; type: functional
[13] = system: Rattus norvegicus; assay: Toxicity in Zucker rat sub-chronic fa/fa prediabetic model assessed as triglyceride level per gram liver at 1 mg/kg, po qd for 31 days measured on day 32 (reference value: 163.4 +/- 8.3 mg); type: organism-based; conditions: in vivo, 744 h
[14] = system: Rattus norvegicus; assay: Toxicity in Zucker rat sub-chronic fa/fa prediabetic model assessed as serum ALT level at 10 mg/kg, po qd for 31 days measured on day 32 (reference value: 151 +/- 23 U/L); type: organism-based; conditions: in vivo, 744 h
[15] = system: Rattus norvegicus; assay: Toxicity in Zucker rat sub-chronic fa/fa prediabetic model assessed as serum AST level at 3 mg/kg, po qd for 31 days measured on day 32 (reference value: 187 +/- 37 U/L); type: organism-based; conditions: in vivo, 744 h
[16] = system: Rattus norvegicus; assay: Antidiabetic activity in po dosed Zucker rat chronic ob/ob model assessed as reduction in blood glucose AUC (0 to 120 min) administered once daily for 31 days measured on day 28 post dose by OGTT; type: functional, organism-based
[17] = system: Rattus norvegicus; assay: Toxicity in Zucker rat sub-chronic fa/fa prediabetic model assessed as serum ALT level at 50 mg/kg, po qd for 31 days measured on day 32 (reference value: 151 +/- 23 U/L); type: organism-based; conditions: in vivo, 744 h
[18] = system: Rattus norvegicus; assay: Effect on NR1H2 gene expression in epididymal white adipose tissue of Zucker rat sub-chronic fa/fa prediabetic model at 10 mg/kg, po qd for 15 days by microarray analysis relative to control; type: functional
[19] = system: Rattus norvegicus; assay: Toxicity in […] model assessed as serum ALT level at 50 mg/kg, po qd for 31 days measured on day 32 (reference value: 127 +/- 9 U/L); type: organism-based; conditions: in vivo, 744 h
[20] = system: Rattus norvegicus; assay: Toxicity in Zucker rat sub-chronic fa/fa prediabetic model assessed as food intake at 1 mg/kg, po qd for 29 days measured on day 1 to 29 during compound dosing (reference value: 969 +/- 18 g); type: organism-based; conditions: in vivo, 696 h
[21] = Cmax in […] chronic ob/ob model at 50 mg/kg, po qd measured on day 1 post dose; type: ADME, organism-based; parameters: dose 50 mg/kg, route oral; conditions: in vivo
[22] = biological target: Peroxisome proliferator-activated receptor gamma (Homo sapiens, UniProt P37231); assay: Inhibition of fluormone PPARgamma Green binding to recombinant N-terminal GST-tagged human PPARgamma LBD by fluorescence polarization assay
Sequence of Peroxisome proliferator-activated receptor gamma (P37231 whole entry, the tested form may be a part): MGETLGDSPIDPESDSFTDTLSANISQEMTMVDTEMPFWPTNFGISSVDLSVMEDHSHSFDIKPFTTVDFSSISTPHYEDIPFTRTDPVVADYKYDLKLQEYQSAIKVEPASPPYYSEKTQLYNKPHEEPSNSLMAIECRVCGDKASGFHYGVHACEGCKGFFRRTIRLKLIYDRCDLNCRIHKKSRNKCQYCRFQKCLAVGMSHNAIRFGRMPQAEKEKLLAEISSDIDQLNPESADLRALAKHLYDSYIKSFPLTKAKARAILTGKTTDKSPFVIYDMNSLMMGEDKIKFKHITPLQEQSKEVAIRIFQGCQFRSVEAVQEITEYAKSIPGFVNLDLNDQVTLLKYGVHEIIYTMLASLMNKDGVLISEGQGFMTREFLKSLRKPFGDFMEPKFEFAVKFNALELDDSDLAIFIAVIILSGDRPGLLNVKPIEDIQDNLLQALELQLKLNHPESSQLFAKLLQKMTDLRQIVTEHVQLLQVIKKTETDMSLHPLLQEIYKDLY

[23] = system: Rattus norvegicus; assay: Toxicity in Zucker rat sub-chronic fa/fa prediabetic model assessed as liver weight at 50 mg/kg, po qd for 31 days measured on day 32 (reference value: 28 +/- 1.6 g); type: organism-based; conditions: in vivo, 744 h
[24] = system: Rattus norvegicus; assay: Effect on PIAS1 gene expression in epididymal white adipose tissue of Zucker rat sub-chronic fa/fa prediabetic model at 10 mg/kg, po qd for 15 days by microarray analysis relative to control; type: functional
[25] = system: Rattus norvegicus; assay: Toxicity in Zucker rat sub-chronic fa/fa prediabetic model assessed as brown adipose tissue weight at 10 mg/kg, po qd for 31 days measured on day 32 (reference value: 2.1 +/- 0.3 g); type: organism-based; conditions: in vivo, 744 h
[26] = system: Rattus norvegicus; assay: Toxicity in Zucker rat sub-chronic fa/fa prediabetic model assessed as increase in body weight at 10 mg/kg, po qd during 10 days study; type: organism-based; conditions: in vivo, 240 h
[27] = system: Rattus norvegicus; assay: Antidiabetic activity in […] chronic ob/ob model assessed as increase in plasma adiponectin level at 3 mg/kg, po qd for 31 days measured on day 32 by ELISA relative to control; type: functional

`CN1CC[C@@H](N2C(=O)S/C(=C\c3ccc4c(cnn4Cc4ccc(Cl)cc4C(F)(F)F)c3)C2=O)[C@H](F)C1` showed an Activity [1] of 1.11 g, an IC50 [2] of 23 nM and an Activity [3] of 8.6%. The AUC [4] was 16.7 ng·h/mL, the “fold change (FC)” value [5] was 1.206 and the Activity [6] was 16.9 g. For the same compound, the Activity [7] was 123 mg/dL, the “fold change (FC)” value [8] was 1.803 and the Activity [9] was 2.61 g. For the same compound, the Activity [10] was 26.3 mg/dL, the “fold change (FC)” value [11] was -1.452 and the “fold change (FC)” value [12] was 1.224. For the same compound, the Activity [13] was 122 mg, the Activity [14] was 122 U/L and the Activity [15] was 111 U/L. For the same compound, the Activity [16] was “Dose-dependent effect”, the Activity [17] was 104 U/L and the “fold change (FC)” value [18] was -1.407. For the same compound, the Activity [19] was 149 U/L, the Activity [20] was 975 g and the Cmax [21] was 2680 ng/mL. For the same compound, the IC50 [22] was over 10000 nM, the Activity [23] was 17.8 g and the “fold change (FC)” value [24] was -1.323. For the same compound, the Activity [25] was 8.7 g, the Activity [26] was “Non-Toxic” and the “fold change (FC)” value [27] was 1.4.
